What was measured:
Assay type in all cases: cell-based, human
[1] = system: mesothelioma (H226) cancer cell line; experiment: 72 hr ATP luminescence cell proliferation inhibition assay, H226
Protocol: (§1) Proliferation inhibition was measured using a 72 hr ATP luminescence assay (Cheng et al., U.S. Pat. No. 8,394,922 B2 (2013)). The antiproliferative effects are reported as IC50's, i.e., the concentration of compound that produces a 50% inhibitory effect on cell proliferation.

[2] = system: ovarian cancer (OVCAR3) cell line; experiment: 72 hr ATP luminescence cell proliferation inhibition assay, OVCAR3
Protocol: as §1

[3] = system: colon cancer (HCT116) cell line; experiment: 72 hr ATP luminescence cell proliferation inhibition assay, HCT116
Protocol: as §1

[4] = system: gastric (stomach) cancer (N87) cell line; experiment: 72 hr ATP luminescence cell proliferation inhibition assay, N87; details: N87 cells
Protocol: as §1

| Compound | IC50 ([1]; H226 cells) [nM] | IC50 ([2]; OVCAR3 cells) [nM] | IC50 ([3]; HCT116 cells) [nM] | IC50 [4] [nM] | IC50 ([1]; Homo sapiens, NCI-H226, H226 cells) [nM] | IC50 ([2]; Homo sapiens, OVCAR-3, OVCAR3 cells) [nM] | IC50 ([3]; Homo sapiens, HCT-116, HCT116 cells) [nM] | IC50 ([4]; Homo sapiens) [nM] |
| --- | --- | --- | --- | --- | --- | --- | --- | --- |
| COc1cc2c(cc1OCCCC(=O)Nc1ccc(C(=O)Nc3ccccc3)cc1)N=C[C@@H]1Cc3ccccc3CN1C2=O [(Ib-01)] | 1.2 | 0.38 | 0.73 | 0.65 | – | – | – | – |
| COc1cc2c(cc1OCCCC(=O)Nc1ccccc1C(=O)Nc1ccccc1)N=C[C@@H]1Cc3ccccc3CN1C2=O [(Ib-02)] | < 250 | 140 | < 250 | 93 | – | – | – | – |
| COc1cc2c(cc1OCCCC(=O)Nc1cccc(C(=O)Nc3ccccc3)c1)N=C[C@@H]1Cc3ccccc3CN1C2=O [(Ib-03)] | 9.4 | 3.1 | 6.9 | 2.4 | – | – | – | – |
| COc1cc2c(cc1OCCCC(=O)Nc1ncc(C(=O)Nc3ccccc3)s1)N=C[C@@H]1Cc3ccccc3CN1C2=O [(Ib-04)] | 5.6 | 0.78 | 2.7 | 2.6 | – | – | – | – |
| COc1cc2c(cc1OCCCC(=O)Nc1nc(C(=O)Nc3ccccc3)cs1)N=C[C@@H]1Cc3ccccc3CN1C2=O [(Ib-05)] | 0.23 | 0.27 | 0.12 | 0.11 | – | – | – | – |
| COc1cc2c(cc1OCCCC(=O)Nc1cc(C(=O)Nc3ccc(-n4cnc(C)n4)nc3)n(C)c1)N=C[C@@H]1Cc3ccccc3CN1C2=O [(Ib-06)] | < 0.004 | 0.031 | 0.008 | 0.009 | – | – | – | – |
| COc1cc2c(cc1OCCCC(=O)Nc1cc(C(=O)Nc3ccc(-n4cnc(Cl)c4)nc3)n(C)c1)N=C[C@@H]1Cc3ccccc3CN1C2=O [(Ib-07)] | 0.02 | 0.024 | 0.018 | 0.073 | – | – | – | – |
| COc1cc2c(cc1OCCCC(=O)Nc1cc(C(=O)Nc3ccc(-n4cnc(C)n4)c(F)c3)n(C)c1)N=C[C@@H]1Cc3ccccc3CN1C2=O [(Ib-08)] | 0.007 | 0.013 | < 0.004 | 0.006 | – | – | – | – |
| COc1cc2c(cc1OCCCC(=O)Nc1cc(C(=O)Nc3ccc(-n4cnc(C)n4)c(C(F)F)c3)n(C)c1)N=C[C@@H]1Cc3ccccc3CN1C2=O [(Ib-09)] | 0.05 | 0.12 | 0.039 | 0.035 | – | – | – | – |
| COc1cc2c(cc1OCCCC(=O)Nc1cc(C(=O)Nc3ccc(-n4cnc(C(F)F)n4)c(OC)c3)n(C)c1)N=C[C@@H]1Cc3ccccc3CN1C2=O [(Ib-10] | 0.018 | 0.037 | 0.014 | 0.026 | – | – | – | – |
| COc1cc2c(cc1OCCCC(=O)Nc1cc(C(=O)Nc3ccc(-n4cnc(C)n4)c(OCC(F)F)c3)n(C)c1)N=C[C@@H]1Cc3ccccc3CN1C2=O [(Ib-11)] | 0.98 | 0.1 | 0.026 | 0.12 | – | – | – | – |
| COc1cc2c(cc1OCCCC(=O)Nc1cc(C(=O)Nc3ccc(-n4cnc(C)n4)c(OC(F)F)c3)n(C)c1)N=C[C@@H]1Cc3ccccc3CN1C2=O [(Ib-12)] | 0.059 | 0.074 | 0.023 | 0.027 | – | – | – | – |
| COc1cc2c(cc1OCCCC(=O)Nc1cc(C(=O)Nc3ccc(-n4cnc(C)n4)c(OC)c3)n(C)c1)N=C[C@@H]1Cc3ccccc3CN1C2=O [(Ib-13)] | – | – | – | – | 0.039 | 0.17 | 0.036 | 0.14 |
| COc1cc2c(cc1OCCCC(=O)Nc1cc(C(=O)Nc3ccc(-c4cccc(C(=O)OC(C)C)c4)cc3)n(C)c1)N=C[C@@H]1Cc3ccccc3CN1C2=O [(Ib-14)] | 0.67 | 0.18 | 0.07 | 0.049 | – | – | – | – |
| COc1ccc(-c2ccc(NC(=O)c3cc(NC(=O)CCCOc4cc5c(cc4OC)C(=O)N4Cc6ccccc6C[C@H]4C=N5)cn3C)cc2)cc1 [(Ib-15)] | < 0.004 | < 0.004 | 0.002 | < 0.004 | – | – | – | – |
| COc1cc2c(cc1OCCCC(=O)Nc1cc(C(=O)Nc3ccc(-n4cnc(C)n4)cc3)n(C)c1)N=C[C@@H]1Cc3ccccc3CN1C2=O [(Ib-16)] | < 0.004 | 0.12 | < 0.004 | < 0.004 | – | – | – | – |

| Compound | IC50 ([1]; H226 cells) [nM] | IC50 ([2]; OVCAR3 cells) [nM] | IC50 ([3]; HCT116 cells) [nM] | IC50 [4] [nM] | IC50 ([1]; Homo sapiens, NCI-H226, H226 cells) [nM] | IC50 ([2]; Homo sapiens, OVCAR-3, OVCAR3 cells) [nM] | IC50 ([3]; Homo sapiens, HCT-116, HCT116 cells) [nM] | IC50 ([4]; Homo sapiens) [nM] |
| --- | --- | --- | --- | --- | --- | --- | --- | --- |
| COc1cc2c(cc1OCCCC(=O)Nc1cc(C(=O)Nc3ccc(-n4cncn4)cc3)n(C)c1)N=C[C@@H]1Cc3ccccc3CN1C2=O [(Ib-17)] | < 0.004 | 0.028 | 0.011 | 0.009 | – | – | – | – |
| COc1cc2c(cc1OCCCC(=O)Nc1cc(C(=O)Nc3ccc(-n4cnc(C(F)F)c4)c(OC)c3)n(C)c1)N=C[C@@H]1Cc3ccccc3CN1C2=O [(Ib-18)] | 0.11 | 0.2 | 0.055 | 0.052 | – | – | – | – |
| COc1cc2c(cc1OCCCC(=O)Nc1cc(C(=O)Nc3ccc(-n4cnc(Cl)c4)c(OC)c3)n(C)c1)N=C[C@@H]1Cc3ccccc3CN1C2=O [(Ib-19)] | 0.11 | 0.23 | 0.038 | 0.045 | – | – | – | – |
| COc1cc2c(cc1OCCCC(=O)Nc1cc(C(=O)Nc3ccc(-n4cnc(Cl)c4)c(F)c3)n(C)c1)N=C[C@@H]1Cc3ccccc3CN1C2=O [(Ib-20)] | 0.031 | 0.1 | 0.027 | 0.014 | – | – | – | – |
| COc1cc2c(cc1OCCCC(=O)Nc1cc(C(=O)Nc3ccc(-n4cnc(C)c4)c(OC)c3)n(C)c1)N=C[C@@H]1Cc3ccccc3CN1C2=O [(Ib-21)] | 0.19 | 0.35 | 0.057 | 0.091 | – | – | – | – |
| COc1cc2c(cc1OCCCC(=O)Nc1cc(C(=O)Nc3ccc(-n4ccnc4)cc3)n(C)c1)N=C[C@@H]1Cc3ccccc3CN1C2=O [(Ib-22)] | 0.18 | 0.91 | 0.088 | 0.24 | – | – | – | – |
| COc1cc2c(cc1OCCCC(=O)Nc1cc(C(=O)Nc3ccc(-c4cocn4)cc3)n(C)c1)N=C[C@@H]1Cc3ccccc3CN1C2=O [(Ib-23)] | 0.036 | 0.022 | 0.007 | 0.014 | – | – | – | – |
| COc1cc2c(cc1OCCCC(=O)Nc1cc(C(=O)Nc3cnn(-c4ccccc4)c3)n(C)c1)N=C[C@@H]1Cc3ccccc3CN1C2=O [(Ib-24)] | 0.053 | 0.16 | 0.008 | 0.074 | – | – | – | – |
| COC(=O)c1nc(-c2ccc(NC(=O)c3cc(NC(=O)CCCOc4cc5c(cc4OC)C(=O)N4Cc6ccccc6C[C@H]4C=N5)cn3C)cc2)cn1C [(Ib-25)] | 0.15 | 0.35 | 0.057 | 0.084 | – | – | – | – |
| COc1cc2c(cc1OCCCC(=O)Nc1cc(C(=O)Nc3ccc(-n4cnc(C)n4)c(O)c3)n(C)c1)N=C[C@@H]1Cc3ccccc3CN1C2=O [(Ib-26)] | < 0.004 | 0.44 | 0.025 | < 0.004 | – | – | – | – |
| C=CCOc1cc(NC(=O)c2cc(NC(=O)CCCOc3cc4c(cc3OC)C(=O)N3Cc5ccccc5C[C@H]3C=N4)cn2C)ccc1-n1cnc(C)n1 [(Ib-27)] | 0.067 | 0.15 | 0.02 | 0.021 | – | – | – | – |
| COc1cc2c(cc1OCCCC(=O)Nc1cc(C(=O)Nc3cc(C)c(-n4cncn4)c(C)c3)n(C)c1)N=C[C@@H]1Cc3ccccc3CN1C2=O [(Ib-28)] | 0.72 | 0.4 | 0.18 | 0.18 | – | – | – | – |
| COc1cc2c(cc1OCCCC(=O)Nc1cc(C(=O)Nc3ccc(-n4cncn4)c(OC)c3)n(C)c1)N=C[C@@H]1Cc3ccccc3CN1C2=O [(Ib-29)] | 0.1 | 0.16 | 0.041 | 0.042 | – | – | – | – |
| COc1cc2c(cc1OCCCC(=O)Nc1cc(C(=O)Nc3ccc(-c4ncc[nH]4)cc3)n(C)c1)N=C[C@@H]1Cc3ccccc3CN1C2=O [(Ib-30)] | 0.66 | 0.76 | 0.1 | 0.37 | – | – | – | – |
| COc1cc2c(cc1OCCCC(=O)Nc1cc(C(=O)Nc3ccc4c(c3)OCc3nncn3-4)n(C)c1)N=C[C@@H]1Cc3ccccc3CN1C2=O [(Ib-31)] | 0.28 | 0.94 | 0.078 | 0.23 | – | – | – | – |
| COc1cc2c(cc1OCCCC(=O)Nc1cc(C(=O)Nc3ccc4c(c3)-n3cnnc3CO4)n(C)c1)N=C[C@@H]1Cc3ccccc3CN1C2=O [(Ib-32)] | 3.1 | 1.6 | 0.3 | 0.41 | – | – | – | – |

From patent publication US10398783B2, “Antiproliferative compounds and conjugates made therefrom” (BRISTOL-MYERS SQUIBB COMPANY, priority 2016, dated 2019)
